Laboratory results from ChEMBL document CHEMBL6087385, “Synthesis and biological evaluation of Ribo 7-N/O/S pyrimidine 9-deaza C-nucleoside analogs as new antiviral agents for inhibiting HCV RNA-dependent RNA polymerases” (Eur J Med Chem, 2024).
Active and inactive are the calls of the source. The rule behind the calls is not given here.

Legend:
Hepatitis C virus [1] = assay: Antiviral activity against Hepatitis C virus infected in Ava5 cells assessed as inhibition of viral RNA replication incubated for 72 hrs by RT-PCR analysis; format: functional, organism-based; details: for Activity: Hepacivirus hominis
Hepatitis C virus [2] = assay: Anti-viral activity against HCV genotype 2a infected in 2aLucNeo-25 cells; format: functional, organism-based, Hepacivirus hominis
Hepatitis C virus [3] = assay: Anti-viral activity against HCV genotype 2a infected in Lunet-CD81 cells; format: functional, organism-based, Hepacivirus hominis
Hepatitis C virus [4] = assay: Anti-viral activity against HCV genotype 1b infected in human Huh-luc cells; format: functional, organism-based, Hepacivirus hominis
Hepatitis C virus [5] = assay: Antiviral activity against HCV genotype 1a infected in GLuc-1 cells; format: functional, organism-based, Hepacivirus hominis
Hepatitis C virus [6] = assay: Antiviral activity against HCV infected in human Huh-7 cells assessed as inhibition of viral RNA replication incubated for 24 hrs by ribonuclease protection assay; format: functional, organism-based, Hepacivirus hominis; details: Huh-7, 24 h

Q: `C[C@@]1(O)[C@H](O)[C@@H](CO)O[C@H]1c1csc2c(N)ncnc12` was tested. Which Activity (Hepatitis C virus [1]) did it give?
A: Its Activity is “inactive”.

Q: How did the Activity (Hepatitis C virus [1]) turn out when `C[C@@]1(O)[C@H](O)[C@@H](CO)O[C@H]1c1coc2c(=O)[nH]c(N)nc12` was run?
A: Its Activity is “inactive”.

Q: For `C[C@@]1(O)[C@H](O)[C@@H](CO)O[C@H]1n1cnc2c(N)ncnc21`, which EC50 (Hepatitis C virus [2]) is on record?
A: The EC50 was 1430 nM.

Q: What about the EC50 (Hepatitis C virus [3]) of the same compound?
A: The EC50 was 300 nM.

Q: What about the EC50 (Hepatitis C virus [4]) of the same compound?
A: Its EC50 is 300 nM.

Q: What about the EC50 (Hepatitis C virus [5]) of the same compound?
A: Its EC50 is 230 nM.

Q: What about the EC50 (Hepatitis C virus [6]) of the same compound?
A: Its EC50 is 300 nM.

Q: How did the Activity (Hepatitis C virus [1]) turn out when `C[C@@]1(O)[C@H](O)[C@@H](CO)O[C@H]1c1coc2c(=O)[nH]cnc12` was run?
A: The Activity was “inactive”.

Q: For `C[C@@]1(O)[C@H](O)[C@@H](COP(=O)(O)OP(=O)(O)OP(=O)(O)O)O[C@H]1c1coc2c(N)ncnc12`, which IC50 (Hepatitis C virus [1]; Ava5, 72 h) is on record?
A: Its IC50 is 5000 nM.

Q: With `C[C@@]1(O)[C@H](O)[C@@H](CO)O[C@H]1c1coc2c(=S)[nH]cnc12` as the compound, how does the Activity (Hepatitis C virus [1]) read?
A: Its Activity is “inactive”.

Q: `C[C@@]1(O)[C@H](O)[C@@H](CO)O[C@H]1c1c[nH]c2c(=O)[nH]c(N)nc12` was tested. Which Activity (Hepatitis C virus [1]) did it give?
A: The Activity was “inactive”.

Q: With `C[C@@]1(O)[C@H](O)[C@@H](CO)O[C@H]1c1coc2c(N)nc(N)nc12` as the compound, how does the Activity (Hepatitis C virus [1]) read?
A: The Activity was “inactive”.
